According to patent EP0026672B1, “Immobilized lactase and its use in hydrolysing lactose” (SUMITOMO CHEMICAL COMPANY, LIMITED, priority 1979, dated 1981):

Key:
[1] = biological target: T1, immobilized lactase: Aspergillus oryzae lactase covalently attached (glutaraldehyde) on macroporous amphoteric phenol-formaldehyde ion-exchange resin (Aspergillus oryzae, UniProt Q2UCU3); test: Km and Ki of the immobilized lactase, general characteristics; format: biochemical; conditions: pH 4.5, 30°C, substrate; lactose; value in brackets
T1 construct: the lactase originated from Aspergillus oryzae is immobilized on one of the carriers; host or cells: Aspergillus oryzae (natural producer)
Description: The immobilized lactase (0.1 to 0.3 ml) is suspended in a 0.05M acetate buffer solution (pH 4.5). To this solution, a solution of lactose in the same kind of buffer solution as above is added to give a 13.3 w/v % lactose solution. The solution was shaken at 30°C for 15 minutes with a shaker (100 rpm, shaking width; 3.5 cm). After the removal of the immobilized lactase by filtration, the content of the glucose in the filtrate is determined using glucose oxidase, peroxidase and dye system. The amount of the enzyme which produces 1 p mole of glucose in one minute is defined as 1 unit (1 ILU). The pH level and the temperature of the measurement of the activity will be stated in each case in the specification.

[2] = biological target: T2, lactase obtained from a strain of Aspergillus oryzae (extracellular enzyme, unimmobilized) (Aspergillus oryzae, UniProt Q2UCU3); test: Km and Ki of the unimmobilized lactase, lactose hydrolysis; format: biochemical
T2 construct: the lactase obtained from a strain of Aspergillus oryzae having; host or cells: Aspergillus oryzae (natural producer)
T2 sequence (Q2UCU3 19-1005): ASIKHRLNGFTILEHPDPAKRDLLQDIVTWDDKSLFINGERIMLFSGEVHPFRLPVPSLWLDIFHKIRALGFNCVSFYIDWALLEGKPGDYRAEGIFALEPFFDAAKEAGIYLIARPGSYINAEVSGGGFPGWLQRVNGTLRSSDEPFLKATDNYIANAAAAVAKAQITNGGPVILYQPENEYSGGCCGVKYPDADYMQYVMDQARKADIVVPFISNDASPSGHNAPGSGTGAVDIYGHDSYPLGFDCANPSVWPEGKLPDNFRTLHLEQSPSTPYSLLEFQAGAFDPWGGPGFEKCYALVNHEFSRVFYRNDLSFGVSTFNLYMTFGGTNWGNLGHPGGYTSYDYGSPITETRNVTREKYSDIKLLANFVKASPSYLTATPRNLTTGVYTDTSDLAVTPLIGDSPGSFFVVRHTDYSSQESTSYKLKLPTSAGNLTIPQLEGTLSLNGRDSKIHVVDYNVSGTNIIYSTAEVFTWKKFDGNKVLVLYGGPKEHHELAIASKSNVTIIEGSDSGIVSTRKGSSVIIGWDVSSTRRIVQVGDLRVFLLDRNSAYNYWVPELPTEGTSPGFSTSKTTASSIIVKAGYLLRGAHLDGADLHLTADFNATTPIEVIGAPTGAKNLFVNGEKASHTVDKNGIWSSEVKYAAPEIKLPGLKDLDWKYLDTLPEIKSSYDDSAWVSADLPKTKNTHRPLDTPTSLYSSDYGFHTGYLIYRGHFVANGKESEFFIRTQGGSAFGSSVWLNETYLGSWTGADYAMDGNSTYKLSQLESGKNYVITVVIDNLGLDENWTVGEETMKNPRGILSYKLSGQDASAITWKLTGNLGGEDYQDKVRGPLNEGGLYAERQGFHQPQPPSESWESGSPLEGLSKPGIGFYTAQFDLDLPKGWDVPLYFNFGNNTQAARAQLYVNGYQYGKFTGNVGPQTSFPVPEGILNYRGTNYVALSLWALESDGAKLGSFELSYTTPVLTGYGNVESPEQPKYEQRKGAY
Description: Ki=7±4 mole/m^3 (0.007±0.004 molell) (pH 4.5, 30°C, substrate; lactose). It is believed that the characteristics of the lactase are well defined by the above data, and some other properties are given below:
In the present specification, 1 ILU is defined as the amount of lactase which produces 1 µ mole per minute of glucose at pH 4.5 at 30°C when a 13.3 w/v% of lactose solution is used as the substrate. The quantity of glucose thus prepared is defined by using glycose oxidase-peroxidase- dye system. When the measurement of the activity (unit) is carried out at a different pH or temperature, the pH or the temperature will specifically be given in each case.

| SMILES | Inhibition constant by galactose Ki [1] [mM] | Ki ([2]; read-out: Inhibition constant by galactose Ki, pH 4.5, 30°C, substrate, lactose, value in brackets) [mM] | Michaelis constant Km [1] [mole/I] | Km value ([2]; lactase dry powder of Example 3 (Shinnihon Kagaku Kogyo Co., 73 ILU/mg)) [mole/I] |
| --- | --- | --- | --- | --- |
| OC[C@H]1OC(O)[C@H](O)[C@@H](O)[C@H]1O (stereo partly shown) [galactose] | 150 ± 100 | 7 ± 4 | – | – |
| OC[C@H]1O[C@@H](O[C@H]2[C@H](O)[C@@H](O)C(O)O[C@@H]2CO)[C@H](O)[C@@H](O)[C@H]1O (stereo partly shown) [lactose] | – | – | 0.15±0.1 | 0.11 |
